System: Avena fatua (AVEFA)
Assay: Example B pre-emergence herbicidal activity, glasshouse pot test
Format: in vivo
Settings: 312 h, rate 1000 g/ha, evaluated after 13 days, read-out: Pre-emergence activity AVEFA (100=total damage to plant; 0=no damage to plant)
Method in brief: (§1)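 Damage rating, 0–100, at 13 d after application. Spray solution: a.i. in acetone/water (50:50), 0.5% Tween 20. Applied 1 d after sowing or at 8 d growth; pots held at 24/16 °C, 14 h light, 65% humidity.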

Row | Structure (SMILES) | pest or weed control at 1000 g/ha
1 | CCc1ccc(-c2ccc(Cl)cc2)cc1C1=C(OC(=O)CCOC)C(C)(C)OC(C)(C)C1=O [Compound D-21] | 50%

System: Setaria faberi (SETFA)
Assay: as above
Format: in vivo
Settings: 312 h, rate 1000 g/ha, evaluated after 13 days, read-out: Pre-emergence activity SETFA (100=total damage to plant; 0=no damage to plant)
Method in brief: as §1

Row | Structure (SMILES) | pest or weed control at 1000 g/ha
2 | CCc1ccc(-c2ccc(Cl)cc2)cc1C1=C(OC(=O)CCOC)C(C)(C)OC(C)(C)C1=O [Compound D-21] | 100%

System: Solanum nigrum (SOLNI)
Assay: as above
Format: in vivo
Settings: 312 h, rate 1000 g/ha, evaluated after 13 days, read-out: Pre-emergence activity SOLNI (100=total damage to plant; 0=no damage to plant)
Method in brief: as §1

Row | Structure (SMILES) | pest or weed control at 1000 g/ha
3 | CCc1ccc(-c2ccc(Cl)cc2)cc1C1=C(OC(=O)CCOC)C(C)(C)OC(C)(C)C1=O [Compound D-21] | 0%

System: Amaranthus retroflexus (AMARE)
Assay: as above
Format: in vivo
Settings: 312 h, rate 1000 g/ha, evaluated after 13 days, read-out: Pre-emergence activity AMARE (100=total damage to plant; 0=no damage to plant)
Method in brief: as §1

Row | Structure (SMILES) | pest or weed control at 1000 g/ha
4 | CCc1ccc(-c2ccc(Cl)cc2)cc1C1=C(OC(=O)CCOC)C(C)(C)OC(C)(C)C1=O [Compound D-21] | 0%

System: Alopecurus myosuroides (ALOMY)
Assay: as above
Format: in vivo
Settings: 312 h, rate 1000 g/ha, evaluated after 13 days, read-out: Pre-emergence activity ALOMY (100=total damage to plant; 0=no damage to plant)
Method in brief: as §1

Row | Structure (SMILES) | pest or weed control at 1000 g/ha
5 | CCc1ccc(-c2ccc(Cl)cc2)cc1C1=C(OC(=O)CCOC)C(C)(C)OC(C)(C)C1=O [Compound D-21] | 90%

System: Echinochloa crus-galli (ECHCG)
Assay: as above
Format: in vivo
Settings: 312 h, rate 1000 g/ha, evaluated after 13 days, read-out: Pre-emergence activity ECHCG (100=total damage to plant; 0=no damage to plant)
Method in brief: as §1

Row | Structure (SMILES) | pest or weed control at 1000 g/ha
6 | CCc1ccc(-c2ccc(Cl)cc2)cc1C1=C(OC(=O)CCOC)C(C)(C)OC(C)(C)C1=O [Compound D-21] | 100%

System: Avena fatua (AVEFA)
Assay: Example A pre-emergence herbicidal activity, glasshouse pot test
Format: in vivo
Settings: 480 h, rate 250 g/ha, evaluated 20 days after spraying, read-out: Pre-emergence activity AVEFA (100=total damage to plant; 0=no damage to plant)
Procedure: (§2) Seeds of a variety of test species were sown in standard soil in pots. After cultivation for one day (pre-emergence) or after 10 days cultivation (post-emergence) under controlled conditions in a glasshouse, the plants were sprayed with an aqueous spray solution derived from the formulation of the technical active ingredient in 0.6 ml acetone and 45 ml formulation solution containing 10.6% Emulsogen EL (Registry number 61791-12-6), 42.2% N-methylpyrrolidone, 42.2% dipropylene glycol monomethyl ether (Registry number 34590-94-8) and 0.2% X-77 (Registry number 11097-66-8). The test plants were then grown in a greenhouse under optimum conditions until, 15 days later for post-emergence and 20 days for pre-emergence, the test was evaluated (100=total damage to plant; 0=no damage to plant).
(§3) Alopecurus myosuroides (ALOMY), Avena fatua (AVEFA), Lolium perenne (LOLPE), Setaria faberi (SETFA), Digitaria sanguinalis (DIGSA), Echinochloa crus-galli (ECHCG)

Row | Structure (SMILES) | pest or weed control at 250 g/ha
7 | CCc1ccc(-c2ccc(Cl)cc2)cc1C1=C(O)C(C)(C)OC(C)(CC)C1=O (single isomer, unassigned) [Compound A-34] | 50%

System: Setaria faberi (SETFA)
Assay: as above
Format: in vivo
Settings: 480 h, rate 250 g/ha, evaluated 20 days after spraying, read-out: Pre-emergence activity SETFA (100=total damage to plant; 0=no damage to plant)
Procedure: as §2, §3

Row | Structure (SMILES) | pest or weed control at 250 g/ha
8 | CCc1ccc(-c2ccc(Cl)cc2)cc1C1=C(O)C(C)(C)OC(C)(CC)C1=O (single isomer, unassigned) [Compound A-34] | 100%

System: Lolium perenne (LOLPE)
Assay: as above
Format: in vivo
Settings: 480 h, rate 250 g/ha, evaluated 20 days after spraying, read-out: Pre-emergence activity LOLPE (100=total damage to plant; 0=no damage to plant)
Procedure: as §2, §3

Row | Structure (SMILES) | pest or weed control at 250 g/ha
9 | CCc1ccc(-c2ccc(Cl)cc2)cc1C1=C(O)C(C)(C)OC(C)(CC)C1=O (single isomer, unassigned) [Compound A-34] | 100%

System: Digitaria sanguinalis (DIGSA)
Assay: as above
Format: in vivo
Settings: 480 h, rate 250 g/ha, evaluated 20 days after spraying, read-out: Pre-emergence activity DIGSA (100=total damage to plant; 0=no damage to plant)
Procedure: as §2, §3

Row | Structure (SMILES) | pest or weed control at 250 g/ha
10 | CCc1ccc(-c2ccc(Cl)cc2)cc1C1=C(O)C(C)(C)OC(C)(CC)C1=O (single isomer, unassigned) [Compound A-34] | 100%

System: Alopecurus myosuroides (ALOMY)
Assay: as above
Format: in vivo
Settings: 480 h, rate 250 g/ha, evaluated 20 days after spraying, read-out: Pre-emergence activity ALOMY (100=total damage to plant; 0=no damage to plant)
Procedure: as §2, §3

Row | Structure (SMILES) | pest or weed control at 250 g/ha
11 | CCc1ccc(-c2ccc(Cl)cc2)cc1C1=C(O)C(C)(C)OC(C)(CC)C1=O (single isomer, unassigned) [Compound A-34] | 60%

System: Echinochloa crus-galli (ECHCG)
Assay: as above
Format: in vivo
Settings: 480 h, rate 250 g/ha, evaluated 20 days after spraying, read-out: Pre-emergence activity ECHCG (100=total damage to plant; 0=no damage to plant)
Procedure: as §2, §3

Row | Structure (SMILES) | pest or weed control at 250 g/ha
12 | CCc1ccc(-c2ccc(Cl)cc2)cc1C1=C(O)C(C)(C)OC(C)(CC)C1=O (single isomer, unassigned) [Compound A-34] | 100%

System: Avena fatua (AVEFA)
Assay: Example B post-emergence herbicidal activity, glasshouse pot test
Format: in vivo
Settings: 312 h, rate 1000 g/ha, evaluated after 13 days, read-out: Post-emergence activity AVEFA (100=total damage to plant; 0=no damage to plant)
Method in brief: as §1

Row | Structure (SMILES) | pest or weed control at 1000 g/ha
13 | CCc1ccc(-c2ccc(Cl)cc2)cc1C1=C(OC(=O)CCOC)C(C)(C)OC(C)(C)C1=O [Compound D-21] | 90%

System: Setaria faberi (SETFA)
Assay: as above
Format: in vivo
Settings: 312 h, rate 1000 g/ha, evaluated after 13 days, read-out: Post-emergence activity SETFA (100=total damage to plant; 0=no damage to plant)
Method in brief: as §1

Row | Structure (SMILES) | pest or weed control at 1000 g/ha
14 | CCc1ccc(-c2ccc(Cl)cc2)cc1C1=C(OC(=O)CCOC)C(C)(C)OC(C)(C)C1=O [Compound D-21] | 100%

System: Solanum nigrum (SOLNI)
Assay: as above
Format: in vivo
Settings: 312 h, rate 1000 g/ha, evaluated after 13 days, read-out: Post-emergence activity SOLNI (100=total damage to plant; 0=no damage to plant)
Method in brief: as §1

Row | Structure (SMILES) | pest or weed control at 1000 g/ha
15 | CCc1ccc(-c2ccc(Cl)cc2)cc1C1=C(OC(=O)CCOC)C(C)(C)OC(C)(C)C1=O [Compound D-21] | 30%

System: Amaranthus retroflexus (AMARE)
Assay: as above
Format: in vivo
Settings: 312 h, rate 1000 g/ha, evaluated after 13 days, read-out: Post-emergence activity AMARE (100=total damage to plant; 0=no damage to plant)
Method in brief: as §1

Row | Structure (SMILES) | pest or weed control at 1000 g/ha
16 | CCc1ccc(-c2ccc(Cl)cc2)cc1C1=C(OC(=O)CCOC)C(C)(C)OC(C)(C)C1=O [Compound D-21] | 10%

System: Alopecurus myosuroides (ALOMY)
Assay: as above
Format: in vivo
Settings: 312 h, rate 1000 g/ha, evaluated after 13 days, read-out: Post-emergence activity ALOMY (100=total damage to plant; 0=no damage to plant)
Method in brief: as §1

Row | Structure (SMILES) | pest or weed control at 1000 g/ha
17 | CCc1ccc(-c2ccc(Cl)cc2)cc1C1=C(OC(=O)CCOC)C(C)(C)OC(C)(C)C1=O [Compound D-21] | 100%

System: Echinochloa crus-galli (ECHCG)
Assay: as above
Format: in vivo
Settings: 312 h, rate 1000 g/ha, evaluated after 13 days, read-out: Post-emergence activity ECHCG (100=total damage to plant; 0=no damage to plant)
Method in brief: as §1

Row | Structure (SMILES) | pest or weed control at 1000 g/ha
18 | CCc1ccc(-c2ccc(Cl)cc2)cc1C1=C(OC(=O)CCOC)C(C)(C)OC(C)(C)C1=O [Compound D-21] | 100%

System: Avena fatua (AVEFA)
Assay: Example A post-emergence herbicidal activity, glasshouse pot test
Format: in vivo
Settings: 360 h, rate 125 g/ha, evaluated 15 days after spraying, read-out: Post-emergence activity AVEFA (100=total damage to plant; 0=no damage to plant)
Procedure: as §2, §3

Row | Structure (SMILES) | pest or weed control at 125 g/ha
19 | CCc1ccc(-c2ccc(Cl)cc2)cc1C1=C(O)C(C)(C)OC(C)(CC)C1=O (single isomer, unassigned) [Compound A-34] | 20%

System: Setaria faberi (SETFA)
Assay: as above
Format: in vivo
Settings: 360 h, rate 125 g/ha, evaluated 15 days after spraying, read-out: Post-emergence activity SETFA (100=total damage to plant; 0=no damage to plant)
Procedure: as §2, §3

Row | Structure (SMILES) | pest or weed control at 125 g/ha
20 | CCc1ccc(-c2ccc(Cl)cc2)cc1C1=C(O)C(C)(C)OC(C)(CC)C1=O (single isomer, unassigned) [Compound A-34] | 90%

System: Lolium perenne (LOLPE)
Assay: as above
Format: in vivo
Settings: 360 h, rate 125 g/ha, evaluated 15 days after spraying, read-out: Post-emergence activity LOLPE (100=total damage to plant; 0=no damage to plant)
Procedure: as §2, §3

Row | Structure (SMILES) | pest or weed control at 125 g/ha
21 | CCc1ccc(-c2ccc(Cl)cc2)cc1C1=C(O)C(C)(C)OC(C)(CC)C1=O (single isomer, unassigned) [Compound A-34] | 80%

System: Digitaria sanguinalis (DIGSA)
Assay: as above
Format: in vivo
Settings: 360 h, rate 125 g/ha, evaluated 15 days after spraying, read-out: Post-emergence activity DIGSA (100=total damage to plant; 0=no damage to plant)
Procedure: as §2, §3

Row | Structure (SMILES) | pest or weed control at 125 g/ha
22 | CCc1ccc(-c2ccc(Cl)cc2)cc1C1=C(O)C(C)(C)OC(C)(CC)C1=O (single isomer, unassigned) [Compound A-34] | 90%

System: Alopecurus myosuroides (ALOMY)
Assay: as above
Format: in vivo
Settings: 360 h, rate 125 g/ha, evaluated 15 days after spraying, read-out: Post-emergence activity ALOMY (100=total damage to plant; 0=no damage to plant)
Procedure: as §2, §3

Row | Structure (SMILES) | pest or weed control at 125 g/ha
23 | CCc1ccc(-c2ccc(Cl)cc2)cc1C1=C(O)C(C)(C)OC(C)(CC)C1=O (single isomer, unassigned) [Compound A-34] | 70%

System: Echinochloa crus-galli (ECHCG)
Assay: as above
Format: in vivo
Settings: 360 h, rate 125 g/ha, evaluated 15 days after spraying, read-out: Post-emergence activity ECHCG (100=total damage to plant; 0=no damage to plant)
Procedure: as §2, §3

Row | Structure (SMILES) | pest or weed control at 125 g/ha
24 | CCc1ccc(-c2ccc(Cl)cc2)cc1C1=C(O)C(C)(C)OC(C)(CC)C1=O (single isomer, unassigned) [Compound A-34] | 100%
